# Data taken from ChEMBL document CHEMBL3885861, “Open TG-GATES”.
# Organism: Rattus norvegicus
# Test: Open TG-GATES - Regimen: Single
# Assay type: toxicity, organism-based, Sprague-Dawley
# Set-up: regimen Single, gender Male, age 6 weeks
# Conditions: in vivo, po, 0 mg/kg, route gavage, dose level Control; for APTT / Bas / Eos / Fbg / Hb / Ht / Lym / MCH / MCHC / MCV / Mono / Neu / PT / Plat / RBC / Ret / WBC: tissue Blood; for KIDNEY_L / KIDNEY_R / KIDNEY_TOTAL: tissue Kidney; for LIVER: tissue Liver; for A/G / ALP / ALT / AST / BUN / CRE / Ca / Cl / DBIL / GLC / IP / K / LDH / Na / PL / RALB / TBIL / TC / TG / TP / gamma-GTP: tissue Plasma
compound,measurement,setting,value
O=C(O)c1cc(/N=N/c2ccc(S(=O)(=O)Nc3ccccn3)cc2)ccc1O [SULFASALAZINE],TERMINAL_BW,3 h,209.5 g
same,APTT,3 h,18.5 s
same,Bas,3 h,0%
same,Eos,3 h,0.8%
same,Fbg,3 h,220.4 mg/dL
same,Hb,3 h,12.8 g/dL
same,Ht,3 h,38.5%
same,Lym,3 h,80.4%
same,MCH,3 h,21.2 pg
same,MCHC,3 h,33.4%
same,MCV,3 h,63.4 fL
same,Mono,3 h,1.8%
same,Neu,3 h,16.4%
same,PT,3 h,12.8 s
same,Plat,3 h,116.8 x10_4/uL
same,RBC,3 h,607.8 x10_4/ul
same,Ret,3 h,7.5%
same,WBC,3 h,77.9 x10_2/uL
same,KIDNEY_L,3 h,0.9 g
same,KIDNEY_R,3 h,0.9 g
same,KIDNEY_TOTAL,3 h,1.9 g
same,LIVER,3 h,9.9 g
same,A/G,3 h,1.5
same,ALP,3 h,1055 IU/L
same,ALT,3 h,36.8 IU/L
same,AST,3 h,60.2 IU/L
same,BUN,3 h,12 mg/dL
same,CRE,3 h,0.4 mg/dL
same,Ca,3 h,10.6 mg/dL
same,Cl,3 h,101.6 meq/L
same,DBIL,3 h,0.074 mg/dL
same,GLC,3 h,196 mg/dL
same,IP,3 h,9.4 mg/dL
same,K,3 h,3.9 meq/L
same,LDH,3 h,182 IU/L
same,Na,3 h,140.2 meq/L
same,PL,3 h,140.6 mg/dL
same,RALB,3 h,3.2 g/dL
same,TBIL,3 h,0.1 mg/dL
same,TC,3 h,78 mg/dL
same,TG,3 h,73.8 mg/dL
same,TP,3 h,5.5 g/dL
same,gamma-GTP,3 h,1.4 IU/L
same,TERMINAL_BW,6 h,206.9 g
same,APTT,6 h,20.7 s
same,Bas,6 h,0%
same,Eos,6 h,1%
same,Fbg,6 h,224 mg/dL
same,Hb,6 h,13.2 g/dL
same,Ht,6 h,38.3%
same,Lym,6 h,75.8%
same,MCH,6 h,21.8 pg
same,MCHC,6 h,34.4%
same,MCV,6 h,63.6 fL
same,Mono,6 h,2.8%
same,Neu,6 h,19.2%
same,PT,6 h,12.9 s
same,Plat,6 h,114.7 x10_4/uL
same,RBC,6 h,602.8 x10_4/ul
same,Ret,6 h,7.7%
same,WBC,6 h,74.8 x10_2/uL
same,KIDNEY_L,6 h,1 g
same,KIDNEY_R,6 h,1 g
same,KIDNEY_TOTAL,6 h,2 g
same,LIVER,6 h,9.4 g
same,A/G,6 h,1.6
same,ALP,6 h,989.2 IU/L
same,ALT,6 h,35.8 IU/L
same,AST,6 h,65.8 IU/L
same,BUN,6 h,10.4 mg/dL
same,CRE,6 h,0.3 mg/dL
same,Ca,6 h,10.6 mg/dL
same,Cl,6 h,101.6 meq/L
same,DBIL,6 h,0.07 mg/dL
same,GLC,6 h,189.2 mg/dL
same,IP,6 h,9.4 mg/dL
same,K,6 h,4 meq/L
same,LDH,6 h,182.6 IU/L
same,Na,6 h,140.6 meq/L
same,PL,6 h,141.2 mg/dL
same,RALB,6 h,3.3 g/dL
same,TBIL,6 h,0.1 mg/dL
same,TC,6 h,73.2 mg/dL
same,TG,6 h,58 mg/dL
same,TP,6 h,5.4 g/dL
same,gamma-GTP,6 h,1.2 IU/L
same,TERMINAL_BW,9 h,205 g
same,APTT,9 h,18.9 s
same,Bas,9 h,0%
same,Eos,9 h,1%
same,Fbg,9 h,213.2 mg/dL
same,Hb,9 h,13.1 g/dL
same,Ht,9 h,38.3%
same,Lym,9 h,72.6%
same,MCH,9 h,21.5 pg
same,MCHC,9 h,34.1%
same,MCV,9 h,63 fL
same,Mono,9 h,3%
same,Neu,9 h,22.2%
same,PT,9 h,12.8 s
same,Plat,9 h,115.1 x10_4/uL
same,RBC,9 h,608.8 x10_4/ul
same,Ret,9 h,7%
same,WBC,9 h,85.1 x10_2/uL
same,KIDNEY_L,9 h,0.9 g
same,KIDNEY_R,9 h,0.9 g
same,KIDNEY_TOTAL,9 h,1.8 g
same,LIVER,9 h,8.7 g
same,A/G,9 h,1.6
same,ALP,9 h,765.6 IU/L
same,ALT,9 h,31.8 IU/L
same,AST,9 h,63.2 IU/L
same,BUN,9 h,11.4 mg/dL
same,CRE,9 h,0.4 mg/dL
same,Ca,9 h,10.5 mg/dL
same,Cl,9 h,103 meq/L
same,DBIL,9 h,0.078 mg/dL
same,GLC,9 h,207.2 mg/dL
same,IP,9 h,9.3 mg/dL
same,K,9 h,3.9 meq/L
same,LDH,9 h,194.2 IU/L
same,Na,9 h,141.2 meq/L
same,PL,9 h,142.2 mg/dL
same,RALB,9 h,3.4 g/dL
same,TBIL,9 h,0.1 mg/dL
same,TC,9 h,73.2 mg/dL
same,TG,9 h,76.4 mg/dL
same,TP,9 h,5.5 g/dL
same,gamma-GTP,9 h,2 IU/L
same,TERMINAL_BW,24 h,224.5 g
same,APTT,24 h,18.9 s
same,Bas,24 h,0%
same,Eos,24 h,1%
same,Fbg,24 h,220.8 mg/dL
same,Hb,24 h,13.3 g/dL
same,Ht,24 h,39%
same,Lym,24 h,73.8%
same,MCH,24 h,21.9 pg
same,MCHC,24 h,34%
same,MCV,24 h,64.3 fL
same,Mono,24 h,3.6%
same,Neu,24 h,20.4%
same,PT,24 h,12.1 s
same,Plat,24 h,117.1 x10_4/uL
same,RBC,24 h,607.2 x10_4/ul
same,Ret,24 h,6.9%
same,WBC,24 h,89.1 x10_2/uL
same,KIDNEY_L,24 h,1 g
same,KIDNEY_R,24 h,1 g
same,KIDNEY_TOTAL,24 h,2 g
same,LIVER,24 h,10.8 g
same,A/G,24 h,1.5
same,ALP,24 h,961.8 IU/L
same,ALT,24 h,45 IU/L
same,AST,24 h,75.8 IU/L
same,BUN,24 h,16.6 mg/dL
same,CRE,24 h,0.4 mg/dL
same,Ca,24 h,10.7 mg/dL
same,Cl,24 h,101.6 meq/L
same,DBIL,24 h,0.1 mg/dL
same,GLC,24 h,193.8 mg/dL
same,IP,24 h,8.1 mg/dL
same,K,24 h,4.1 meq/L
same,LDH,24 h,214.4 IU/L
same,Na,24 h,140 meq/L
same,PL,24 h,181.4 mg/dL
same,RALB,24 h,3.4 g/dL
same,TBIL,24 h,0.2 mg/dL
same,TC,24 h,89.4 mg/dL
same,TG,24 h,133 mg/dL
same,TP,24 h,5.6 g/dL
same,gamma-GTP,24 h,1.2 IU/L
